Where a name gives a salt, the structure may show the parent alone.

Results on one compound are retold here after patent publication US20250049787A1, “TREATMENT FOR ACUTE MYELOID LEUKEMIA OR LYMPHOMA” (UNIVERSITY HEALTH NETWORK, priority 2021, published 2025).

Common to all, as to type: cell-based
For experiment [1], the system named is DAUDI. In words: Growth inhibition, Alamar Blue. The following applies: Homo sapiens, 72 h, NHL, Burkitt's lymphoma, 3 days. The method, then: (§1) Cell lines were obtained from American Type Culture Collection (ATCC) and maintained according to the supplier's instructions, and from Dr. Mark Minden (Princess Margaret Cancer Centre, Toronto, Canada). Short tandem repeat (STR) profiling was used to verify authenticity of the cell lines. Peripheral blood from healthy human donors was obtained from the Hematology Malignancy Tissue Bank at the University Health Network. Peripheral blood mononuclear cells (PBMC) were prepared from the blood by density gradient centrifugation using Ficoll-Paque PLUS by manufacturer's instructions (GE Healthcare Life Sciences). […] Compound (I) tartrate was prepared as a 10 mM stock solution in 100% DMSO. The stock solution was diluted with RPMI-1640 (Invitrogen) containing 10% FBS (fetal bovine serum) such that the final concentrations ranged from 300 fM to 300 μM. Aliquots (20 μL) from each concentration were overlaid to 180 μL of pre-seeded cells to achieve final concentrations of 30 fM to 30 μM. After 3 days, cell growth in each well was assessed by Alamar Blue assay reagent (Invitrogen). Raw fluorescence (λEM=590 nm) values were adjusted by subtracting the average of the baseline readings from untreated cells assessed one day after cell seeding. Relative cell growth was calculated by comparing to DMSO-treated cells. The concentrations at which cell growth was inhibited by 50% (growth inhibition IC50) were calculated using GraphPad PRISM software (GraphPad Software Inc.).
Background: Alamar Blue is a resazurin reagent that responds to reducing activity.

Experiment [2] has as its system HL-60. In words: Growth inhibition, Alamar Blue. The following applies: Homo sapiens, 72 h; HL-60, AML M2; FLT3 wild-type, protein expressed; 3 days. The method, then:
as §1

Experiment [3] concerns JURKAT. In words: Growth inhibition, Alamar Blue. The conditions noted are these: Homo sapiens, 72 h, T-ALL, 3 days. The procedure: as §1
The subject of experiment [4] is K562. The experiment in a line: Growth inhibition, Alamar Blue. The conditions noted are these: Homo sapiens, 72 h; K562, CML; 3 days. The procedure:
as §1

The test system of experiment [5] is KOPN-8. In words: Growth inhibition, Alamar Blue. The following applies: Homo sapiens, 72 h; KOPN-8, B-ALL; 3 days. The procedure:
as §1

Experiment [6] has as its system MOLM-13. The experiment in a line: Growth inhibition, Alamar Blue. The following applies: Homo sapiens, 72 h; MOLM-13, AML M5; FLT3 ITD + wild-type, protein not expressed; 3 days. The procedure: as §1
Experiment [7] has as its system MOLM-14. The experiment in a line: Growth inhibition, Alamar Blue. The conditions noted are these: Homo sapiens, 72 h; MOLM-14, AML M5; FLT3 ITD + wild-type, protein expressed; 3 days. The procedure: as §1
In experiment [8] the test system is MOLT-4. In words: Growth inhibition, Alamar Blue. The conditions noted are these: Homo sapiens, 72 h; MOLT-4, T-ALL; 3 days. The procedure: as §1
Experiment [9] has as its system NALM-16. The experiment in a line: Growth inhibition, Alamar Blue. The following applies: Homo sapiens, NALM16, 72 h; NALM-16, B-ALL; 3 days. The procedure: as §1
Experiment [10] deals with NALM-6. The experiment in a line: Growth inhibition, Alamar Blue. The conditions noted are these: Homo sapiens, 72 h; NALM-6, B-ALL; 3 days. The procedure:
as §1

Experiment [11] concerns NB4. In words: Growth inhibition, Alamar Blue. The following applies: Homo sapiens, NB-4, 72 h; NB4, AML M3; 3 days. The procedure: as §1
The test system of experiment [12] is OCI-AML2. The experiment in a line: Growth inhibition, Alamar Blue. The conditions noted are these: Homo sapiens, 72 h; OCI-AML2, AML M4; 3 days. The method, then: as §1
Experiment [13] concerns OCI-AML3. In words: Growth inhibition, Alamar Blue. The following applies: Homo sapiens, OCI-AML-3, 72 h; OCI-AML3, AML M4; 3 days. The procedure: as §1
For experiment [14], the system named is OCI-AML4. In words: Growth inhibition, Alamar Blue. The following applies: Homo sapiens, 72 h; OCI-AML4, AML M4; 3 days. The method, then:
as §1

Experiment [15] relates to OCI-AML5. In words: Growth inhibition, Alamar Blue. The following applies: Homo sapiens, OCI-AML-5, 72 h; OCI-AML5, AML M4; 3 days. The procedure:
as §1

Experiment [16] has as its system OCI-LY10. The experiment in a line: Growth inhibition, Alamar Blue. The conditions noted are these: Homo sapiens, 72 h; OCI-LY10, NHL, ABC-DLBCL; 3 days. The procedure:
as §1

Experiment [17] concerns OCI-LY18. The experiment in a line: Growth inhibition, Alamar Blue. The conditions noted are these: Homo sapiens, 72 h; OCI-LY18, NHL, GCB-DLBCL; 3 days. The method, then: as §1
Experiment [18] deals with OCI-LY3. In words: Growth inhibition, Alamar Blue. The conditions noted are these: Homo sapiens, 72 h; OCI-LY3, NHL, ABC-DLBCL; 3 days. The procedure:
as §1

In experiment [19] the test system is OCI-LY8. In words: Growth inhibition, Alamar Blue. The conditions noted are these: Homo sapiens, 72 h; OCI-LY8, NHL, GCB-DLBCL; 3 days. The method, then:
as §1

For experiment [20], the system named is PBMC. In words: Growth inhibition, Alamar Blue. The following applies: 72 h, NORMAL (healthy human donors), 3 days. The method, then: as §1
Experiment [21] has as its system REH. In words: Growth inhibition, Alamar Blue. The following applies: Homo sapiens, 72 h, B-ALL, 3 days. The method, then: as §1
Experiment [22] relates to RS4; 11. In words: Growth inhibition, Alamar Blue. The conditions noted are these: Homo sapiens, 72 h, 11, B-ALL, 3 days. The method, then: as §1
For experiment [23], the system named is U937. In words: Growth inhibition, Alamar Blue. The following applies: Homo sapiens, U-937, 72 h; U937, AML M5; 3 days. The method, then: as §1
Experiment [24] deals with FLT3-ITD-expressing 32D cells (20 ng/ml mouse IL-3). In words: Growth inhibition, 32D transfectants with mouse IL-3. The following applies: 32D transfectant FLT3-ITD. The procedure:
as §1, with “The concentrations at which cell growth was inhibited by 50% (growth inhibition IC50) were calculated using GraphPad PRISM software (GraphPad Software Inc.).” left out

For orientation: IC50 means the point on the concentration scale where inhibition reaches its midpoint. Take `CN1CCN(c2ccc3nc(-c4c(N)c5ccsc5[nH]c4=O)[nH]c3c2)CC1` [Compound (I) tartrate, 4-amino-5-(6-(4-methylpiperazin-1-yl)-1H-benzo[d]imidazol-2-yl)thieno[2,3-b]pyridin-6(7H)-one]: the IC50 in [1] was 1300 nM; in experiment [2], 1200 nM; in [3], 3400 nM; in experiment [4], 6000 nM; in experiment [5] it was 3300 nM; in experiment [6] it was 1900 nM. The IC50 in [7] was 4.7 nM; in [8], 1600 nM; in experiment [9], 1100 nM; in experiment [10], 10000 nM; in [11], 940 nM; in experiment [12], 1500 nM. Further, the half-maximal inhibitory concentration (IC50) in experiment [13] is at least 30000 nM; in [14], 160 nM; in experiment [15], 270 nM; in [16], 570 nM; in experiment [17] it was 90 nM; in [18] it was 240 nM. The IC50 in experiment [19] worked out at 3600 nM; in experiment [20] it was 14000 nM; in experiment [21], 1400 nM; in [22] it was 1700 nM; in [23] it was 770 nM; in experiment [24], 1440 nM.
